The results in this text go back to ChEMBL document CHEMBL2384946 (Bioorg Med Chem, 2013).

The species entered for assay [1] is Rattus norvegicus. Nature of the assay: Selectivity ratio of Ki for rat cloned dopamine D2L receptor to Ki for rat cloned dopamine D3 receptor.
In assay [2] the target is D(3) dopamine receptor (Rattus norvegicus, UniProt P19020). Kind of assay: Displacement of [3H]spiperone from rat cloned dopamine D3 receptor expressed in HEK293 cells after 1 hr. The format is cell-based. (In general: In a radioligand displacement assay an active substance lowers the binding of a labelled ligand.)
Assay [3] has as its target D(2) dopamine receptor (Rattus norvegicus, UniProt P61169). Kind of assay: Displacement of [3H]spiperone from rat cloned dopamine D2L receptor expressed in HEK293 cells after 1 hr. The format is cell-based.
Assay [4] addresses D(3) dopamine receptor (Homo sapiens, UniProt P35462). Nature of the assay: Agonist activity at human dopamine D3 receptor expressed in CHO cells assessed as stimulation of [35S]GTPgammaS binding after 60 mins by scintillation counting analysis. The settings on record: for pEC50: read-out: EC50; for EC50: cho. The format is functional, cell-based. A general note: Binding of GTPγS marks nucleotide exchange on a G protein.

The target of assay [5] is T1, D(2) dopamine receptor (Homo sapiens, UniProt P14416). Nature of the assay: Agonist activity at human dopamine D2L receptor expressed in CHO cells assessed as stimulation of [35S]GTPgammaS binding after 60 mins by scintillation counting analysis relative to dopamine. The format is functional, cell-based.
For assay [6], the target named is T1, D(2) dopamine receptor. Nature of the assay: Agonist activity at human dopamine D2L receptor expressed in CHO cells assessed as stimulation of [35S]GTPgammaS binding after 60 mins by scintillation counting analysis. Format: functional, cell-based. Conditions: for EC50: cho; call rule not given here.

pEC50, pKi: −log10 of the molar value.

Chain of D(2) dopamine receptor (Rattus norvegicus, UniProt P61169) (P61169 whole entry): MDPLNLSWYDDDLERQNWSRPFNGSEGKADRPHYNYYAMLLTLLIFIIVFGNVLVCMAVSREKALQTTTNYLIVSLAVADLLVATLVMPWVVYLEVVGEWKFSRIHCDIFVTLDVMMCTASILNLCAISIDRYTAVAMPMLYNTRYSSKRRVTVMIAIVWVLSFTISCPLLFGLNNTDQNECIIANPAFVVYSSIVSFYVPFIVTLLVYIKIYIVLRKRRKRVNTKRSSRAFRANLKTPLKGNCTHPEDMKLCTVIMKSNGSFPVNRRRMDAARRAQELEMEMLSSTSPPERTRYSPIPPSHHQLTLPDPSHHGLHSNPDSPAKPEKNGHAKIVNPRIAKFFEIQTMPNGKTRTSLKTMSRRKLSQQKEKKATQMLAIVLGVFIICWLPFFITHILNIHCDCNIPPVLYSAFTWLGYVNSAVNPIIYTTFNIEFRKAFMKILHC
Chain of D(3) dopamine receptor (Homo sapiens, UniProt P35462) (P35462 whole entry): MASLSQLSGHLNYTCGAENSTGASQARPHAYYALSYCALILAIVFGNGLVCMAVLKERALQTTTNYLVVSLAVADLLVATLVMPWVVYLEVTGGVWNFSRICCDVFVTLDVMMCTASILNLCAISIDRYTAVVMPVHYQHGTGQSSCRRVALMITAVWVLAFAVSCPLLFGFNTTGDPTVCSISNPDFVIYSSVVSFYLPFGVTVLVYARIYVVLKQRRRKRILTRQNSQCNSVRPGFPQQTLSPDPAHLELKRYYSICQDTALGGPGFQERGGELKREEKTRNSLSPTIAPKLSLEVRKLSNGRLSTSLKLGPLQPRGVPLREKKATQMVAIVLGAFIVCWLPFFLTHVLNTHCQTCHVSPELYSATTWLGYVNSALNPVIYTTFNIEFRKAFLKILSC
Chain of D(3) dopamine receptor (Rattus norvegicus, UniProt P19020) (P19020 whole entry): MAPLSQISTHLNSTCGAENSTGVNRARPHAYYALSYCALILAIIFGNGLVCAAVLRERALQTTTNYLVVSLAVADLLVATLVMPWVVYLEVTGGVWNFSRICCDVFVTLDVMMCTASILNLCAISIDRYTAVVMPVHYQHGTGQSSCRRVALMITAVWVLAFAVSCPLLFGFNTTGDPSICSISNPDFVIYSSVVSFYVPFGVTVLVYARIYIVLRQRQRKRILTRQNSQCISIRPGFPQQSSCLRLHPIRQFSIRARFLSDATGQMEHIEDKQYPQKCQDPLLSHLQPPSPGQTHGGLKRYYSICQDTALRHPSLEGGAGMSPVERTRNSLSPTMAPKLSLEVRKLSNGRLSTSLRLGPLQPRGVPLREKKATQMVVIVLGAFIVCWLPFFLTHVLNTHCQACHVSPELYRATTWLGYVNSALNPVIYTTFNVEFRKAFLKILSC
T1 sequence (P14416 whole entry): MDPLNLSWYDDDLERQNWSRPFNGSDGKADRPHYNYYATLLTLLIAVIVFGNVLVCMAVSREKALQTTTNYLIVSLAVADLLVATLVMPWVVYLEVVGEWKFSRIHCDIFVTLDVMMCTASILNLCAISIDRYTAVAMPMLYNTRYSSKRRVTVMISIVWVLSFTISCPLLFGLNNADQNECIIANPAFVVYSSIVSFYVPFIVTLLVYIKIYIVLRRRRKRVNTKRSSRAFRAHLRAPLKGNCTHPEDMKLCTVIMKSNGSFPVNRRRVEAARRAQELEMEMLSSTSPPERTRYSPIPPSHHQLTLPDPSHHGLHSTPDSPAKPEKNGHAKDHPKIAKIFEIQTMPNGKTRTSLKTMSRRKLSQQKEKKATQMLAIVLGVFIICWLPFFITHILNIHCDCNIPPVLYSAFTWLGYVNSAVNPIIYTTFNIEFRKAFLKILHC

As to `CCCN(CCN1CCN(c2ccccc2OC)CC1)C1CCc2cc3[nH]c(=O)[nH]c3cc2C1` (centres undefined), the Ratio Ki in assay [1] amounted to 2.14. Further, the negative-log Ki (pKi) in assay [2] is 6.71; in assay [3], 6.38.

In the case of `CCCN(CCN1CCN(c2ccccc2OC)CC1)C1CCc2cc3[nH]c(=S)[nH]c3cc2C1` (centres undefined), the Ratio Ki in assay [1] is 2.05. In addition, the pKi in assay [2] is 6.95; in assay [3] it was 6.64.

`CCCN(CCN1CCN(c2ccccc2)CC1)C1CCc2ccc(NS(=O)(=O)c3ccc(OC)cc3)cc2C1` (racemic): the pKi in assay [2] is 8.65; in assay [3], 7.19.

Take `CCCN(CCN1CCN(c2ccccc2)CC1)C1CCc2ccc(NS(=O)(=O)c3ccc(C)cc3)cc2C1` (centres undefined): the Ratio Ki in assay [1] turned out to be 10.6. In addition, the pKi in assay [2] is 8.43; in assay [3], 7.41.

For the compound `CCCN(CCN1CCN(c2nccc3ccccc23)CC1)[C@H]1CCc2nc(N)sc2C1`, the Ratio Ki in assay [1] came to 121.

Take `CCCN(CCN1CCN(c2ccccc2)CC1)C1CCc2ccc(NS(=O)(=O)c3ccc(Cl)cc3)cc2C1` (centres undefined): the Ratio Ki in assay [1] is 17.5. In addition, the pKi in assay [2] is 8.38; in assay [3] it was 7.14.

As to `CCCN(CCN1CCN(C(=O)c2cc3ccccc3[nH]2)CC1)C1CCc2nc(N)sc2C1` (centres undefined), in assay [4], the negative logarithm of the EC50 (pEC50) was 9.59. Also, the Emax in assay [5] was 101%. The pKi in assay [2] was 8.74; in assay [3] it was 5.97.

For `CCCN(CCN1CCN(c2ccccc2)CC1)[C@@H]1CCc2ccc(N)cc2C1`, the figures for the negative-log EC50 (pEC50) in assay [4] and in assay [6] (read-out: EC50) were 7.52 and 6.75, respectively. Moreover, the Emax in assay [5] was found to be 36.8%. The negative logarithm of the Ki (pKi) is 7.69 in assay [2] and 6.22 in assay [3].

For `CCCN(CCN1CCN(c2ccccc2)CC1)C1CCc2cc3[nH]c(N)nc3cc2C1` (centres undefined), the Ratio Ki in assay [1] worked out at 8.89.

As to `CCCN(CCN1CCN(c2ccccc2)CC1)C1CCc2ccc(NC(=O)c3ccccc3)cc2C1` (centres undefined), in assay [1], the Ratio Ki turned out to be 5.72. Also, the negative logarithm of the Ki (pKi) in assay [2] was 6.96; in assay [3], 6.20.

As to `CCCN(CCN1CCN(c2ccccc2)CC1)C1CCc2ccc3nc[nH]c3c2C1` (centres undefined), the Ratio Ki in assay [1] amounted to 9.61. The pKi is 7.27 in assay [2] and 6.28 in assay [3].

With `CCCN(CCN1CCN(c2ccccc2)CC1)[C@@H]1CCc2ccc(NS(=O)(=O)c3ccc(OC)cc3)cc2C1`, the EC50 entry in assay [4] and in assay [6] was “Not Active” throughout. The results for the pKi in assay [2] and in assay [3] were 8.63 and 7.00, respectively.

On to `CCCN(CCN1CCN(c2ccccc2)CC1)C1CCc2cc3cc[nH]c3cc2C1` (centres undefined), for which the Ratio Ki in assay [1] came to 11.9. For the same compound, the figures for the pKi in assay [2] and in assay [3] were 7.97 and 6.90, respectively.

`CCCN(CCN1CCN(c2ccccc2)CC1)[C@H]1CCc2ccc(N)cc2C1`: the pKi in assay [2] is 7.34; in assay [3], 5.57.

As to `CCCN(CCN1CCN(c2ccccc2)CC1)C1CCc2ccc(NC(C)=O)cc2C1` (centres undefined), in assay [1], the Ratio Ki came out at 7.44. Further, the values for the negative-log Ki (pKi) in assay [2] and in assay [3] were 6.76 and 5.89, respectively.

As for `CCCN(CCN1CCN(c2ccccc2)CC1)[C@H]1CCc2c(cccc2OS(=O)(=O)c2ccc(OC)cc2)C1`, the EC50 entry in assay [4] and in assay [6] was “Not Active” throughout. Besides, the results for the pKi in assay [2] and in assay [3] were 7.75 and 6.30, respectively.

For the compound `CCCN(CCN1CCN(c2ccccc2)CC1)C1CCc2ccc(NS(=O)(=O)c3ccc(C(F)(F)F)cc3)cc2C1` (centres undefined), the Ratio Ki in assay [1] is 10.6. For the same compound, the figures for the negative logarithm of the Ki (pKi) in assay [2] and in assay [3] were 8.06 and 7.04, respectively.

Consider `CCCN(CCN1CCN(c2ccccc2)CC1)C1CCc2ccc(N)cc2C1` (racemic), for which the values for the negative logarithm of the Ki (pKi) in assay [2] and in assay [3] were 7.65 and 6.20, respectively.

Take `CCCN(CCN1CCN(c2ccccc2OC)CC1)C1CCc2cc3[nH]cnc3cc2C1` (centres undefined): the Ratio Ki in assay [1] was found to be 22.5. Further, the negative-log Ki (pKi) in assay [2] was 7.71; in assay [3] it was 6.35.

On to `CCCN(CCN1CCN(c2ccccc2)CC1)C1CCc2cc3[nH]cnc3cc2C1` (centres undefined), for which the Ratio Ki in assay [1] was determined as 21.3. For the same compound, the pKi in assay [2] was 7.22; in assay [3] it was 5.89.

Consider `CCCN(CCN1CCN(c2ccccc2)CC1)[C@H]1CCc2c(cccc2OS(=O)(=O)c2ccc(C)cc2)C1`, for which, in assay [1], the Ratio Ki turned out to be 19.8. In addition, the results for the pKi in assay [2] and in assay [3] were 7.49 and 6.20, respectively.

Consider `CCCN(CCN1CCN(c2ccccc2)CC1)[C@@H]1CCc2ccc(OS(=O)(=O)c3ccc(OC)cc3)cc2C1`, for which the Ratio Ki in assay [1] worked out at 40. Also, the pKi is 7.57 in assay [2] and 5.97 in assay [3].

Usually pKi stands for −log10 of the Ki, conventionally taken in molar units. A higher pKi goes with a low Ki. In general, pEC50 refers to the EC50 on a negative log10 scale, so that one unit is a factor of ten. In general, Emax refers to the maximal effect, on the per cent scale that the assay sets.
